Patent US11278550B2, “Compositions and methods for the treatment of Prader-Willi syndrome” (Duke University, priority 2016, dated 2022)
“Also recorded” adds a separate entry of the source.

Key:
m+/pΔS-U mice = experiment: Survival and growth in PWS mouse model; assay type: in vivo; conditions: between P10 and P19, treated m+/pΔS-U pups
Method: The dosage and duration vary depending on the age and condition of animals.
The m/p^ΔS-U pups were treated between postnatal day 7 (P7) and P12, as most m^+/p^ΔS-U pups died before weaning. For neonatal PWS mice, a lower dose regimen of 2.5 mg/kg i.p. injections for 5 consecutive days was used. […] Pups at postnatal day 7 (P7) were treated with a daily dose of 2.5 mg/kg for 5 days.

several cell lines = conditions: cited from earlier work
m+/pΔS-U and WT mice = experiment: Toxicity evaluation in mice (body weight, neurological screening, blood, histopathology); assay type: in vivo, mouse
Method: Brain, liver, lung, kidney and heart tissues from 3-month-old mice were fixed in 10% neutral buffered formalin (NBF: 10 ml of Formalin (37% stock), 90 ml of deionized water, 4 g/liter of NaH2PO4, 6.5 g/liter Na2HPO4), embedded in paraffin, sectioned at 5 μm, stained with hematoxylin and eosin, and images examined by a board-certified toxicological pathologist.
Blood was collected from 3-month-old mice into microcontainers or hematology assay tubes using jugular vein bleeding puncture. A serum metabolic panel was obtained using the Heska Dry Chem analyzer (Cuattro Veterinary USA). The metabolic panel contained chem and electrolyte, liver and kidney functions. For hematology analysis, we tested whole blood using Procyte (IDEXX).
General health of mice was evaluated using a modified version of standard test battery for behavioral phenotyping (see 57). Observational assessment included the evaluation of body weight, body core temperature, overt behavioral signs (coat appearance, body posture and secretary signs) and sensory functions (visual ability, audition, tactile percep- tion and vestibular function). Table 6 indicates the mouse sex and age information.

[1] = in vivo; cited from earlier work
[2] = test system: adult Snrpn-EGFP mouse model; experiment: Long-lasting unsilencing in adult Snrpn-EGFP mice; assay type: in vivo; conditions: 1, 4, and 12 weeks after the last dose; brain
Method: For testing long lasting drug effects, the 6 week-old m^S-EGFP/p^+ mice were treated daily by i.p. injection for seven consecutive days.
For reverse-transcription PCR (RT-PCR) and quantitative real time RT-PCR (qRT-PCR), first total RNA was extracted from the fibroblasts and/or collected tissues (liver and brain) using Direct-zol RNA Miniprep kit (Zymo Research cat. no. R2070). 2 μg of total RNA was directly used for single strand cDNA synthesis with Superscript III reverse transcriptase (Invitrogen cat. no. 18080-093) according to the manufacturer's protocols. The conditions for RT-PCR were 95° C./5 min, 35-40 cycles of 95° C./30 sec, 56-60° C./60 sec, 72° C./60 sec. Quantification of target gene expression was performed in a LightCycler480 instrument (Roche) using SsoAdvanced Universal SYBR green Supermix (Biorad cat. no. 172-5271) according to the manufacturer's instructions. See Table 4 for primer sequences and conditions used for experiments for RT-PCR, qRT-PCR, bisulfite genomic sequencing, ChIP-qPCR, and chromatin accessibility assay.

PWS-IC = experiment: Bisulfite genomic sequencing of PWS-IC, human PWS cells; assay type: cell-based
Method: Genomic DNA was isolated from human PWS fibroblasts or mouse tissues. DNA (1 μg) was then treated by bisulfite using the Epi-Tect bisulfite kit (Qiagen), and 125 ng input DNA was used per PCR amplification. PCR products were sub-cloned into pGEM-T easy vector (Promega) and an average of 15 clones were sequenced. DNA sequencing results were analyzed using BISMA web-based analysis platform with a setting for individual clones with <95% bisulfite conversion and <90% sequence identity to be excluded in the analysis.

human PWS fibroblasts [3] = experiment: Chromatin accessibility assay; assay type: cell-based; conditions: vs vehicle-treated controls
Method: Chromatin accessibility assay was performed to investigate whether G9a inhibitors change open/close state of the imprinted cluster in the PWS-IC region according to Pai, C.C., et al. Nature communications 5, 4091 (2014) with slight modifications. Briefly, 3 days after drug treatment in human PWS fibroblasts, the cells were harvested and lysed with lysis buffer (0.5% NP-40, 15 mM Tris-HCl [pH 7.4], 0.15 mM Spermidine, 0.5 mM Spermine, 15 mM NaCl, 60 mM KCl, 1 mM DTT, 0.1 mM PMSF, 0.5M Sucrose, Protease and Phosphatase inhibitor cocktail (Roche)). The lysed cells were collected by centrifugation (3000 RPM/10 min/4° C.) and rinsed with digestive buffer (15 mM Tris-HCl [pH 7.4], 15 mM NaCl, 60 mM KCl, 4 mM MgCl2, 1 mM DTT, 0.1 mM PMSF, 0.35M Sucrose). After rinsing the cell pellets, MNase (NEB) was added to digest open status of chromatins, followed by genomic qPCR to determine changes in amount of SNRPN and other imprinted genes.

human PWS fibroblasts [4] = experiment: Western blot of SNRPN protein in human PWS fibroblasts; assay type: cell-based; conditions: 4 μM, 72 hr
human PWS fibroblasts [5] = experiment: Chromatin immunoprecipitation (ChIP-qPCR) of H3K9me2/H3K9me3; assay type: cell-based
Method: Histone methylations on the SNRPN locus in human fibroblasts were analyzed by chromatin immunoprecipitation assay (ChIP) using the protocol as previously reported (see Fulmer-Smentek et al., Human molecular genetics 10, 645-652 (2001)). ChIP assay was performed using ChIP-IT Express magnetic kit (Active Motif) according to the manufacturer's instructions with modification for the fixation and reverse-crosslinking steps. Briefly, native chromatin was prepared without fixation and enzymatic digestions to average 150-500 bp sized chromatin. 20 μg of chromatin was added to the specific antibodies (2 μg) or species control isotype antibodies for each immunoprecipitation reaction. The antibody-chromatin complexes were bound to protein G magnetic beads for recovering chromatin immunoprecipitates. RNase- and proteinase K-treated DNA was purified using PCR purification columns (Promega). DNA recovery was quantified by real time PCR performed on the LightCycler480 instrument (Roche) using SsoAdvanced Universal SYBR green Supermix (Biorad). Antibodies were anti-rabbit acetylated H3 (Millipore 06-599), anti-mouse monoclonal Histone H3 dimethyl K9 (Abcam 1220) and Histone H3 trimethyl K9 (Millipore, 07-442) antibodies. qPCR reactions were performed with the following cycling parameters: at 95° C./5 min followed by 40 cycles of 95° C./30 sec, 60° C./60 sec. Data was normalized to the total input.

[6] = test system: human PWS fibroblast cells; experiment: Cell viability (CellTox Green Cytotoxicity Assay); assay type: cell-based; conditions: 1-4 μM, 72 hours
Method: Cell viability was measured by fluorescence using CellTox™ Green Cytotoxicity Assay (Promega, cat. no. G8741) according to the manufacturer's instructions.

Compound: COc1cc2c(NC3CCN(C(C)C)CC3)nc(N3CCC(F)(F)CC3)nc2cc1OCCCN1CCCC1 [UNC0642]
- growth (body weight) (m+/pΔS-U mice): significant improvement of growth
- cell toxicity (several cell lines): low cell toxicity
- loss of body weight (m+/pΔS-U and WT mice; WT mice): not observed
- general health and neurological screening (m+/pΔS-U and WT mice; blinded): did not reveal any substantial abnormalities
- histopathological analyses (m+/pΔS-U and WT mice; brain, liver, kidney, lung and heart, P90 / 3 months): did not reveal any abnormalities; also recorded: no significant compound related lesions
- hematological analysis (liver and kidney functions, lipid and protein metabolism) (m+/pΔS-U and WT mice; treated m+/pΔS-U and WT mice): within normal ranges
- pharmacokinetic properties such as central nervous system penetration [1]: superior to UNC0638
- maternal expression of Snrpn-EGFP [2]: long lasting effect

Compound: COc1cc2c(NC3CCN(C(C)C)CC3)nc(C3CCCCC3)nc2cc1OCCCN1CCCC1 [UNC0638]
- DNA methylation of the PWS-IC (PWS-IC): did not significantly alter
- chromatin accessibility across the imprinted domains incl. SNRPN and SNORD116 (human PWS fibroblasts [3]): more open and accessible
- SNRPN protein, of normal levels (human PWS fibroblasts [4]): approximately 30%
- H3K9me2 in the region associated with NDN (human PWS fibroblasts [5]): reduced
- H3K9me2 enriched at the PWS-IC after treatment (human PWS fibroblasts [5]; ChIP-qPCR, reduction from 17-fold untreated, p<0.05): 3 fold
- H3K9me3 at host transcript of SNORD116 after treatment (human PWS fibroblasts [5]; ChIP-qPCR, reduction from 24-fold untreated, p<0.05): 2 fold
- H3K9me2 at host transcript of SNORD116 after treatment (human PWS fibroblasts [5]; ChIP-qPCR, reduction from 122-fold untreated, p<0.05): 4 fold
- level of H3K9me2 (and H3K9me3) in the PWS-IC (human PWS fibroblasts [5]; in words): drastically reduced
- cytotoxicity [6]: minimal cytotoxicity
